Like-named read-outs stand apart in the source and are kept apart here.
Legend:
[1] = assay type: in vivo, human
Safety [2] = assay type: in vivo, human
Safety [3] = assay type: in vivo, human; remark: listed apart in the source
[4] = cited from earlier work
[5] = cited from earlier work; remark: listed apart in the source
[6] = tested on: CYP3A4 or other CYP isoenzymes; conditions: cited from earlier work
CYP system = conditions: cited from earlier work
[7] = apixaban 10 mg + atenolol 100 mg vs apixaban 10 mg

For `COc1ccc(-n2nc(C(N)=O)c3c2C(=O)N(c2ccc(N4CCCCC4=O)cc2)CC3)cc1` [Apixaban], the “Effect of apixaban on the PK of digoxin” value ([1]; apixaban 20 mg once daily, digoxin 0.25 mg once daily) was “no effect”, the “Deaths, serious AEs, major bleeding-related AEs” value (Safety [2]; digoxin 0.25 mg, then digoxin 0.25 mg + apixaban 20 mg once daily) was “No deaths, serious AEs, or major bleeding-related AEs” and the “Number of AEs” value (Safety [3]; apixaban 10 mg alone, none bleeding-related) was “five”. The “Deaths, serious AEs, major bleeding-related AEs” value (Safety [3]; single doses of apixaban 10 mg, atenolol 100 mg, or both) was “No deaths, serious AEs, or major bleeding-related AEs”, the “mean elimination half-life (t1/2)” value ([4]; apixaban in healthy subjects) was ~ 12 hours and the “lower apixaban AUCinf in subjects ≥120 kg” value ([4]; effect of body weight) was 23%. The “lower apixaban Cmax in subjects ≥120 kg” value ([4]; effect of body weight) was 31%, the “bound to serum proteins” value ([5]; apixaban) was 87% and the protein-bound [5] was 87%. The “inhibition or induction of CYP3A4 or other CYP isoenzymes” value [6] was “does not inhibit or induce”, the “Decrease in apixaban AUC0–t when coadministered with atenolol” value [7] was 15% and the “Decrease in apixaban AUCinf when coadministered with atenolol” value [7] was 15%. The “Decrease in apixaban Cmax when coadministered with atenolol” value [7] was 18%, the “Pharmacokinetic interaction between apixaban and atenolol” value (apixaban 10 mg, atenolol 100 mg, single doses) was “no clinically relevant interaction” and the AUCinf (apixaban, Treatment C, apixaban 10 mg + atenolol 100 mg, geometric mean (CV %), n=14) was 1878 (33) ng·h/mL. It also gave an AUC(0-inf) (human, plasma, oral, 10 mg) of 2160 ng·h/mL, an AUC(0-t) (human, plasma, oral, 10 mg) of 2100 ng·h/mL and a Cmax (human, plasma, oral, 10 mg) of 216 ng/mL. For the same molecule, the Tmax (human, plasma, oral, 10 mg) was 3 h and the half-life (human, plasma, oral, 10 mg) was 13.9 h.
With `CC(C)NCC(O)COc1ccc(CC(N)=O)cc1` (centres unmarked) [Atenolol, atenolol] the “Tolerability of coadministration with apixaban” value (Safety [3]; healthy subjects, atenolol 100 mg + apixaban 10 mg) was “generally well tolerated”.
With `C[C@H]1O[C@@H](O[C@H]2[C@@H](O)C[C@H](O[C@H]3[C@@H](O)C[C@H](O[C@H]4CC[C@@]5(C)[C@H](CC[C@@H]6[C@@H]5C[C@@H](O)[C@]5(C)[C@@H](C7=CC(=O)OC7)CC[C@]65O)C4)O[C@@H]3C)O[C@@H]2C)C[C@H](O)[C@@H]1O` [Digoxin, digoxin] the Tmax ([1]; digoxin, Treatment B, digoxin 0.25 mg + apixaban 20 mg, day 20, median (min, max)) was 1.00 (1.0, 2.0) h, the AUC ([1]; human, serum, oral, 0.25 mg) was 16.8 ng·h/mL and the Cmax ([1]; human, serum, oral, 0.25 mg) was 1.68 ng/mL. The “Tolerability of coadministration with apixaban” value (Safety [2]; healthy subjects, digoxin 0.25 mg + apixaban 20 mg) was “generally well tolerated” and the “induction or inhibition of the CYP system” value (CYP system) was “does not appear to induce or inhibit”.
